Publication PMC6104039 (Nature Communications, 2018)
Values joined by “and” are separate entries in the source; they are usually repeats but may differ in a detail not shown here. Identical values can stand only once.

Columns and labels:
soleus muscles = experiment: 14C-palmitate oxidation and incorporation into TAG in isolated soleus muscles of treated mice; assay type: in vivo
Method: After a 30 min pre-incubation, muscles were transferred into vials containing 0.5 mCi/mL of [1-^14C]-palmitate in modified Krebs-Henseleit buffer for another 1 h. The reaction was stopped by removal of the muscles and addition of 1 M perchloric acid to the reaction mixture. ^14C-labelled CO2 was quantified as described above. The muscles were blotted dry and snap frozen in liquid nitrogen for subsequent lipid extraction and TLC. Muscles were homogenized using a Polytron (Kinematica, Littau-Lucerne, Switzerland) in 1.5 mL 2:1 chloroform-methanol (v/v). […] The upper aqueous phase was used to quantify ASM, and the lower organic phase was collected and dried under stream of N2, then reconstituted in hexane and spotted on a Silica Gel 60 F254 TLC plate. The TLC plate was developed in hexane/diethyl ether/glacial acetic acid (85:15:1), then air dried. TAG bands were visualised using iodine vapour staining, using an external standard to mark their position, then scraped into vials and quantified by liquid scintillation counting.

SkM [1] = experiment: Targeted quantification of sphingosine and dihydrosphingosine in SkM; assay type: in vivo, mice; conditions: 5 mg/kg daily
Description: (§1) Male C57BL6/J mice were obtained from the Animal Resources Centre in Perth (WA, Australia). […] Treatment was commenced at the same time as mice were randomised to dietary groups. The experiments were approved by the UNSW animal care and ethics committee (ACEC 15/48B), and followed guidelines issued by the National Health and Medical Research Council of Australia.

SkM [2] = experiment: Lipidomic profiling of skeletal muscle (quadriceps) of mice on chow or HFD; assay type: in vivo
Description: as §1
Lipids were extracted from frozen tissue samples or cells using a two-phase procedure with methyl-tert-butyl ether (MTBE)/methanol/water (10:3:2.5, v/v/v)[67]. Frozen tissue samples (~20 mg) were homogenized in 0.2 mL methanol containing 0.01% butylated hydroxytoluene (BHT), using a Precellys 24 homogenizer and Cryolys cooling unit (Bertin Technologies) with CK14 (1.4-mm ceramic) beads. The homogenates were spiked with an internal standard mixture comprising 5 nmole 19:0/19:0 phosphatidylcholine and 2 nmole each of 17:0/17:0 phosphatidylethanolamine, 17:0/17:0 phosphatidylserine, 17:0/17:0 d5-diacylglycerol, 17:0/17:0 phosphatidylglycerol, 14:0/14:0/14:0/14:0 cardiolipin, 18:1/12:0 SM, 18:1/17:0 ceramide, 18:1/12:0 glucosylceramide, 18:1/12:0 lactosylceramide, 18:1/12:0 sulfatide (all from Avanti Polar Lipids, USA), and 17:0/17:0/17:0 TAG (Cayman Chemical, USA), then transferred to 10 mL screw cap glass tubes. The homogenization tubes containing beads were then washed with another 0.3 mL methanol, and this wash was combined with the first methanol extract, after which 1.7 mL MTBE was added and the samples were sonicated in an ice-cold sonicating water bath (Thermoline Scientific, Australia) for 30 min. Phase separation was induced by addition of 417 µL of mass spectrometry-grade water followed by vortexing and centrifugation at 1000 × g for 10 min. The upper organic phase was collected into 5 mL glass tubes. The lower phase was re-extracted by adding 1 mL MTBE, 300 μL methanol, and 250 μL water. The organic phases were combined in the 5 mL glass tubes and dried under vacuum in a Savant SC210 SpeedVac (Thermo Scientific), then reconstituted in 500 μL methanol and stored at −20 °C until analysis.
Lipidomic profiling was performed on a QExactive Plus mass spectrometer with heated electrospray ionization (HESI) probe and a Dionex UltiMate 2000 LC pump (Thermo Fisher Scientific). Extracts were resolved on a 2.1 × 100 mm Waters Acquity C18 UPLC column (1.7 µm […]), using a binary gradient in which mobile phase A consisted of acetonitrile:water (60:40), 10 mM ammonium formate, 0.1% formic acid; and mobile phase B was isopropanol:acetonitrile (90:10), 10 mM ammonium formate, 0.1% formic acid[68]. The flow rate was 260 µL/min and column oven 55 °C. Data was acquired in full scan/data-dependent MS^2 mode (full scan resolution 70,000 FWHM, scan range 400–1200 m/z). The ten most abundant ions in each cycle were subjected to MS^2 using an isolation window of 1.4 m/z, collision energy 30 eV, resolution 17,500, maximum integration time 110 ms and dynamic exclusion window 10 s. An exclusion list of background ions was used based on a solvent blank. LipidSearch v4.1.30 software (ThermoFisher Scientific) was used for chromatogram alignment, peak identification and integration. Each lipid peak was manually verified for column elution time and characteristic fragment ions. Data were then exported to an Excel spreadsheet for normalisation of each lipid to its class-specific internal standard, and lipid concentrations were calculated relative to the internal standard.
Data were log transformed, then subjected to two-tailed t-tests adjusted for multiple comparisons using GraphPad PRISM (Benjamini, Krieger and Yekutieli correction, Q = 1%).

[3] = 5 mg/kg daily, 4–6 weeks, HFD group

C[C@@](N)(CO)CCc1ccc(OCc2ccc(Cl)c(Cl)c2)cc1 [P053, (S)-2-amino-4-(4-(3,4-dichlorobenzyloxy)phenyl)-2-methylbutan-1-ol]
oxidation of 14C-palmitate in soleus muscles (soleus muscles; 2 weeks, 5 mg/kg): significantly increased | incorporation of 14C-palmitate into TAG (soleus muscles; 2 weeks, 5 mg/kg, 1 h incubation): unchanged | increase of the rate of palmitate oxidation in muscle (soleus muscles; P053 treatment): 23% | dihydrosphingosine levels in SkM (SkM [1]): not notably affected | increase of sphingosine levels in SkM (SkM [1]; HFD): 22% | increase of sphingosine levels in SkM (SkM [1]; chow diet, not significant): 11% | HexCer content of SkM (SkM [2]; 5 mg/kg daily, 4–6 weeks): not significantly affected | levels of common phospholipids in SkM (SkM [2]; 5 mg/kg daily, 4–6 weeks): did not affect | total ceramide content of SkM (SkM [2]; 5 mg/kg daily, 4–6 weeks): reduced total ceramide content | 42:2 SM in SkM (SkM [2]; [3]): significantly increased | very long chain ceramides (C22:0, C24:0 and C24:1) in SkM (SkM [2]; [3]): significantly increased | mean levels of 36:1 SM in SkM, lower than vehicle (SkM [2]; 5 mg/kg daily, 4–6 weeks, both diets, not statistically significant): 13% | Ceramide 18:1/16:0 content of skeletal muscle (SkM [2]; Chow + P053, individual mice): 3.10 and 1.77 (2×) and 2.74 and 1.05 and 2.59 and 2.04 and 2.73 and 4.80 and 1.58 and 1.47 and 1.10 and 1.69 and 1.86 and 1.78 and 2.17 and 1.48 (2×) | Ceramide 18:1/18:0 content of skeletal muscle (SkM [2]; Chow + P053, individual mice): 20.71 and 17.58 and 23.00 and 14.06 and 16.77 and 18.40 (2×) and 20.26 and 15.08 and 13.86 and 23.04 and 23.06 and 23.01 and 18.78 and 15.44 and 14.24 and 19.21 and 15.87 | Ceramide 18:1/20:0 content of skeletal muscle (SkM [2]; Chow + P053, individual mice): 0.50 and 0.38 (2×) and 0.51 and 0.33 and 0.44 and 0.57 and 0.41 and 0.18 (2×) and 0.21 and 0.17 (2×) and 0.22 and 0.15 (2×) and 0.13 and 0.20 | Ceramide 18:1/22:0 content of skeletal muscle (SkM [2]; Chow + P053, individual mice): 1.58 and 1.18 and 1.27 and 1.31 and 1.33 and 1.24 and 2.02 and 1.70 and 0.82 and 0.97 and 0.93 and 1.37 and 0.85 and 1.53 and 1.04 (2×) and 0.62 and 0.77 | Ceramide 18:1/24:0 content of skeletal muscle (SkM [2]; Chow + P053, individual mice): 2.05 and 1.75 and 2.39 and 1.84 (2×) and 2.22 and 3.08 and 3.05 and 1.41 and 1.81 and 2.08 and 2.47 and 0.10 and 2.48 and 0.14 and 1.18 and 1.87 and 1.61 | Ceramide 18:1/24:1 content of skeletal muscle (SkM [2]; Chow + P053, individual mice): 5.19 and 4.17 and 5.42 and 4.06 and 4.86 and 4.12 and 6.25 and 6.63 and 2.73 and 3.16 and 3.08 and 4.65 and 3.22 and 4.69 and 3.70 and 2.46 and 3.14 and 2.75 | Ceramide 18:2/18:0 content of skeletal muscle (SkM [2]; Chow + P053, individual mice): 1.63 and 1.36 and 1.77 and 0.81 and 1.04 and 1.34 and 1.47 (2×) and 1.60 and 2.11 and 1.87 and 1.91 and 1.85 and 1.31 and 1.49 and 1.75 and 1.71 and 1.50 | SM 34:1 content of skeletal muscle (SkM [2]; Chow + P053, individual mice): 155.00 and 75.29 and 64.44 and 51.84 and 157.48 and 87.87 and 37.17 and 61.63 and 56.39 and 26.64 and 21.61 and 27.95 and 26.10 and 29.76 and 25.67 and 36.05 and 29.79 and 28.45 | SM 36:1 content of skeletal muscle (SkM [2]; Chow + P053, individual mice): 408.35 and 391.75 and 244.36 and 209.60 and 257.92 and 303.73 and 198.39 and 281.99 and 211.03 and 160.27 and 169.50 and 130.04 and 157.61 and 130.34 and 143.84 and 173.19 and 158.59 and 154.00 | SM 36:2 content of skeletal muscle (SkM [2]; Chow + P053, individual mice): 5.68 and 10.86 and 10.80 and 2.69 and 6.07 and 9.49 and 5.32 and 8.00 and 6.39 and 4.78 and 4.58 and 3.87 and 4.48 and 3.64 and 4.59 and 6.14 and 4.52 and 4.32 | SM 38:1 content of skeletal muscle (SkM [2]; Chow + P053, individual mice): 13.22 and 12.48 and 5.72 and 6.13 and 5.91 and 5.41 and 17.63 and 9.33 and 1.53 and 1.84 and 1.68 and 1.39 and 1.34 and 1.51 and 1.41 and 1.37 and 2.56 and 1.65 | SM 40:1 content of skeletal muscle (SkM [2]; Chow + P053, individual mice): 28.35 and 29.55 and 12.61 and 11.97 and 14.98 and 15.26 and 24.07 and 17.95 and 17.87 and 21.14 and 17.97 and 25.28 and 16.09 and 25.29 and 21.99 and 14.69 and 26.69 and 18.42 | SM 40:2 content of skeletal muscle (SkM [2]; Chow + P053, individual mice): 2.18 and 3.25 and 1.19 and 1.06 and 1.18 and 0.98 and 4.74 and 3.00 and 1.89 and 2.04 and 2.38 and 2.68 and 1.85 and 2.58 and 2.52 and 1.52 and 2.57 and 1.93 | SM 42:1 content of skeletal muscle (SkM [2]; Chow + P053, individual mice): 26.96 and 32.88 and 11.84 and 14.58 and 16.55 and 13.22 and 32.58 and 20.65 and 17.62 and 18.82 and 16.13 and 27.77 and 16.56 and 31.99 and 21.25 and 13.55 and 28.43 and 16.15 | SM 42:2 content of skeletal muscle (SkM [2]; Chow + P053, individual mice): 78.98 and 85.87 and 38.45 and 39.28 and 45.06 and 42.02 and 67.24 and 61.76 and 56.89 and 58.53 and 52.21 and 80.69 and 50.18 and 74.84 and 63.29 and 51.49 and 78.04 and 54.99 | SM 42:3 content of skeletal muscle (SkM [2]; Chow + P053, individual mice): 11.26 and 12.44 and 7.12 and 5.50 and 7.16 and 6.69 and 11.58 and 9.28 and 9.04 and 9.58 and 8.81 and 14.49 and 7.86 and 11.12 and 9.61 and 8.30 and 13.11 and 8.65 | total SkM TAG content, lower than HFD vehicle group (SkM [2]; HFD + P053): 60% | Ceramide 18:1/16:0 content of skeletal muscle (SkM [2]; HFD + P053, individual mice): 1.10 and 2.17 and 1.83 and 1.12 (2×) and 2.90 and 1.46 and 0.87 (2×) and 1.73 and 3.22 and 1.34 and 1.89 and 1.27 and 1.41 and 1.14 and 1.04 and 0.99 and 1.01 | Ceramide 18:1/18:0 content of skeletal muscle (SkM [2]; HFD + P053, individual mice): 14.13 and 13.78 and 15.90 and 15.58 and 21.96 and 19.36 and 13.96 and 15.88 and 24.31 and 19.32 and 17.61 and 21.70 and 17.37 and 21.41 and 15.56 and 12.14 and 18.07 and 11.49 and 13.22 | Ceramide 18:1/20:0 content of skeletal muscle (SkM [2]; HFD + P053, individual mice): 0.45 (2×) and 0.54 and 0.57 and 0.65 and 0.48 and 0.42 and 0.40 and 0.77 and 0.10 (2×) and 0.08 (2×) and 0.06 (2×) and 0.07 (2×) and 0.05 and 0.09 | Ceramide 18:1/22:0 content of skeletal muscle (SkM [2]; HFD + P053, individual mice): 1.69 and 1.43 and 1.68 and 1.85 and 2.17 and 1.53 and 1.50 and 1.46 and 2.26 and 1.14 and 1.16 and 1.47 and 1.36 and 1.00 and 1.18 and 0.98 and 1.30 and 1.04 and 1.72 | Ceramide 18:1/24:0 content of skeletal muscle (SkM [2]; HFD + P053, individual mice): 1.53 (2×) and 1.50 and 1.85 and 1.78 and 2.27 and 1.57 (2×) and 1.81 and 2.48 and 1.41 and 1.31 and 1.65 and 1.24 and 1.83 and 1.21 and 1.67 and 1.20 and 1.73
